# Experimental data reported in patent US20220306695A1, “COMPSTATIN ANALOGUES AND THEIR MEDICAL USES” (priority 2019, published 2022).
# Starred links: 1 amine or outer side, 2 acyl side, 3 side chain; linkers in the order of their positions; H or OH if unused. Positions of bridges follow the written chain, without caps; N, C: chain ends. Non-standard residues stand in square brackets, D forms with d. Residues, ends and D or L forms follow the SMILES beside them. Groups on a side chain read outwards from the residue. *: point of attachment. Trp(1-Me) = Cn1cc(C[C@H](N)C(=O)O)c2ccccc21; C18 diacid = O=C(O)CCCCCCCCCCCCCCCCC(=O)*; C16 diacid = O=C(O)CCCCCCCCCCCCCCC(=O)*; γGlu = O=C(O)[C@H](CCC(=O)[*:2])N[*:1]; AEEA = NCCOCCOCC(=O)O; Aoc = NCCCCCCCC(=O)O; Sar = CNCC(=O)O
# System: classical complement pathway
# Assay: In vitro haemolysis assay (inhibition of classical complement pathway)
# Assay type: cell-based, human
# Details: Table 3; human serum, sensitized sheep red blood cells; read-out: IC50[nM], in vitro analysis of inhibition of hemolysis
# How it was run: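 Serially diluted compound (9 points) was preincubated 15 min at room temperature with diluted human serum, titrated per batch to give 70-90% maximal haemolysis, in Tris/casein buffer pH 7.4 with Mg2+/Ca2+. Antibody-sensitized sheep erythrocytes were then added for 30 min at 37° C, and the reaction was stopped with EDTA. Haemolysis was read at A405, with IC50 from 4PL fit.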
row,Compound,IC50
1,CC[C@H](C)[C@@H]1NC(=O)[C@@H](NC(=O)[C@H](Cc2ccccc2)NC(=O)[C@H](CCC(=O)O)NC(=O)[C@H](CO)NC(C)=O)CSSC[C@@H](C(=O)N(C)CC(=O)N[C@@H](CCC(=O)O)C(=O)NCC(=O)N[C@@H](CCC(=O)O)C(=O)NCCOCCOCC(=O)NCCOCCOCC(=O)N[C@@H](CCCCNC(=O)CC[C@H](NC(=O)CNC(=O)CC[C@H](NC(=O)CCCCCCCCCCCCCCC(=O)O)C(=O)O)C(=O)O)C(N)=O)NC(=O)[C@H](CCCNC(=N)N)NC(=O)[C@H](Cc2c[nH]cn2)NC(=O)[C@H](CCC(=O)O)NC(=O)CNC(=O)[C@H](Cc2c[nH]c3ccccc23)NC(=O)[C@H](CC(=O)O)NC(=O)[C@H](CCC(N)=O)NC(=O)[C@H](Cc2cn(C)c3ccccc23)NC1=O [Compound 127] (Ac-SEFCI[Trp(1-Me)]QDWGEHRC[Sar]EGE[AEEA][AEEA]K([γGlu-Gly-γGlu-C16 diacid])-NH2; disulfide 4-14),< 100 nM
2,CC[C@H](C)[C@@H]1NC(=O)[C@@H](NC(=O)[C@H](Cc2ccccc2)NC(=O)[C@H](CCC(=O)O)NC(=O)[C@H](CO)NC(C)=O)CSSC[C@@H](C(=O)N(C)CC(=O)N[C@@H](CCC(=O)O)C(=O)NCC(=O)N[C@@H](CCC(=O)O)C(=O)NCC(=O)NCC(=O)NCC(=O)N[C@@H](CCCCNC(=O)CC[C@H](NC(=O)CNC(=O)CC[C@H](NC(=O)CCCCCCCCCCCCCCCCC(=O)O)C(=O)O)C(=O)O)C(N)=O)NC(=O)[C@H](CCCNC(=N)N)NC(=O)[C@H](Cc2c[nH]cn2)NC(=O)[C@H](CCC(=O)O)NC(=O)CNC(=O)[C@H](Cc2c[nH]c3ccccc23)NC(=O)[C@H](CC(=O)O)NC(=O)[C@H](CCC(N)=O)NC(=O)[C@H](Cc2cn(C)c3ccccc23)NC1=O [Compound 129] (Ac-SEFCI[Trp(1-Me)]QDWGEHRC[Sar]EGEGGGK([γGlu-Gly-γGlu-C18 diacid])-NH2; disulfide 4-14),< 100 nM
3,CC[C@H](C)[C@@H]1NC(=O)[C@@H](NC(=O)[C@H](Cc2ccccc2)NC(=O)[C@H](CCC(=O)O)NC(=O)[C@H](CO)NC(C)=O)CSSC[C@@H](C(=O)N[C@H](C(=O)N[C@@H](CCC(=O)O)C(=O)NCC(=O)N[C@@H](CCC(=O)O)C(=O)NCC(=O)NCC(=O)NCC(=O)N[C@@H](CCCCNC(=O)CC[C@H](NC(=O)CNC(=O)CC[C@H](NC(=O)CCCCCCCCCCCCCCCCC(=O)O)C(=O)O)C(=O)O)C(N)=O)[C@@H](C)O)NC(=O)[C@H](CCCNC(=N)N)NC(=O)[C@H](Cc2c[nH]cn2)NC(=O)[C@H](CCC(=O)O)NC(=O)CNC(=O)[C@H](Cc2c[nH]c3ccccc23)NC(=O)[C@H](CC(=O)O)NC(=O)[C@H](CCC(N)=O)NC(=O)[C@H](Cc2cn(C)c3ccccc23)NC1=O [Compound 130] (Ac-SEFCI[Trp(1-Me)]QDWGEHRCTEGEGGGK([γGlu-Gly-γGlu-C18 diacid])-NH2; disulfide 4-14),< 100 nM
4,CC[C@H](C)[C@@H]1NC(=O)[C@@H](NC(=O)[C@H](Cc2ccccc2)NC(=O)[C@H](CCC(=O)O)NC(=O)[C@H](CO)NC(C)=O)CSSC[C@@H](C(=O)N[C@H](C(=O)N[C@@H](CCC(=O)O)C(=O)NCC(=O)N[C@@H](CCC(=O)O)C(=O)NCC(=O)NCC(=O)NCC(=O)N[C@@H](CCCCNC(=O)CC[C@H](NC(=O)CNC(=O)CC[C@H](NC(=O)CCCCCCCCCCCCCCC(=O)O)C(=O)O)C(=O)O)C(N)=O)[C@@H](C)O)NC(=O)[C@H](CCCNC(=N)N)NC(=O)[C@H](Cc2c[nH]cn2)NC(=O)[C@H](CCC(=O)O)NC(=O)CNC(=O)[C@H](Cc2c[nH]c3ccccc23)NC(=O)[C@H](CC(=O)O)NC(=O)[C@H](CCC(N)=O)NC(=O)[C@H](Cc2cn(C)c3ccccc23)NC1=O [Compound 131] (Ac-SEFCI[Trp(1-Me)]QDWGEHRCTEGEGGGK([γGlu-Gly-γGlu-C16 diacid])-NH2; disulfide 4-14),< 100 nM
5,CC[C@H](C)[C@@H]1NC(=O)[C@@H](NC(=O)[C@H](Cc2ccccc2)NC(=O)[C@H](CCC(=O)O)NC(=O)[C@H](CO)NC(C)=O)CSSC[C@@H](C(=O)N(C)CC(=O)N[C@@H](CCC(=O)O)C(=O)N[C@@H](CCCCN)C(=O)N[C@@H](CCC(=O)NCC(=O)NCC(=O)NCC(=O)N[C@@H](CCCCNC(=O)CC[C@H](NC(=O)CNC(=O)CC[C@H](NC(=O)CCCCCCCCCCCCCCCCC(=O)O)C(=O)O)C(=O)O)C(N)=O)C(=O)O)NC(=O)[C@H](CCCNC(=N)N)NC(=O)[C@H](Cc2c[nH]cn2)NC(=O)[C@H](CCC(=O)O)NC(=O)CNC(=O)[C@H](Cc2c[nH]c3ccccc23)NC(=O)[C@H](CC(=O)O)NC(=O)[C@H](CCC(N)=O)NC(=O)[C@H](Cc2cn(C)c3ccccc23)NC1=O [Compound 132] (Ac-SEFCI[Trp(1-Me)]QDWGEHRC[Sar]EK[γGlu]GGGK([γGlu-Gly-γGlu-C18 diacid])-NH2; disulfide 4-14),< 100 nM
6,CC[C@H](C)[C@@H]1NC(=O)[C@@H](NC(=O)[C@H](Cc2ccccc2)NC(=O)[C@H](CCC(=O)O)NC(=O)[C@H](CO)NC(C)=O)CSSC[C@@H](C(=O)N[C@H](C(=O)N[C@@H](CCC(=O)O)C(=O)N[C@@H](CCCCN)C(=O)N[C@@H](CCC(=O)NCC(=O)NCC(=O)NCC(=O)N[C@@H](CCCCNC(=O)CC[C@H](NC(=O)CNC(=O)CC[C@H](NC(=O)CCCCCCCCCCCCCCCCC(=O)O)C(=O)O)C(=O)O)C(N)=O)C(=O)O)[C@@H](C)O)NC(=O)[C@H](CCCNC(=N)N)NC(=O)[C@H](Cc2c[nH]cn2)NC(=O)[C@H](CCC(=O)O)NC(=O)CNC(=O)[C@H](Cc2c[nH]c3ccccc23)NC(=O)[C@H](CC(=O)O)NC(=O)[C@H](CCC(N)=O)NC(=O)[C@H](Cc2cn(C)c3ccccc23)NC1=O [Compound 133] (Ac-SEFCI[Trp(1-Me)]QDWGEHRCTEK[γGlu]GGGK([γGlu-Gly-γGlu-C18 diacid])-NH2; disulfide 4-14),< 100 nM
7,CC[C@H](C)[C@@H]1NC(=O)[C@@H](NC(=O)[C@H](Cc2ccccc2)NC(=O)[C@H](CCC(=O)O)NC(C)=O)CSSC[C@@H](C(=O)N[C@@H](CCC(=O)O)C(=O)NCC(=O)N[C@@H](CCC(=O)O)C(=O)N[C@@H](CCCCNC(=O)CC[C@H](NC(=O)CNC(=O)CC[C@H](NC(=O)CCCCCCCCCCCCCCCCC(=O)O)C(=O)O)C(=O)O)C(N)=O)NC(=O)[C@H](CCCNC(=N)N)NC(=O)[C@H](Cc2c[nH]cn2)NC(=O)[C@H](CCC(=O)O)NC(=O)CNC(=O)[C@H](Cc2c[nH]c3ccccc23)NC(=O)[C@H](CC(=O)O)NC(=O)[C@H](CCC(N)=O)NC(=O)[C@H](Cc2cn(C)c3ccccc23)NC1=O [Compound 134] (Ac-EFCI[Trp(1-Me)]QDWGEHRCEGEK([γGlu-Gly-γGlu-C18 diacid])-NH2; disulfide 3-13),< 100 nM
8,CC[C@H](C)[C@@H]1NC(=O)[C@@H](NC(=O)[C@H](Cc2ccccc2)NC(=O)[C@H](CCC(=O)O)NC(=O)[C@H](CO)NC(C)=O)CSSC[C@@H](C(=O)N[C@H](C(=O)N[C@@H](CCC(=O)O)C(=O)NCC(=O)N[C@@H](CCC(=O)O)C(=O)NCCCCCCCC(=O)N[C@@H](CCCCNC(=O)CC[C@H](NC(=O)CNC(=O)CC[C@H](NC(=O)CCCCCCCCCCCCCCCCC(=O)O)C(=O)O)C(=O)O)C(N)=O)[C@@H](C)O)NC(=O)[C@H](CCCNC(=N)N)NC(=O)[C@H](Cc2c[nH]cn2)NC(=O)[C@H](CCC(=O)O)NC(=O)CNC(=O)[C@H](Cc2c[nH]c3ccccc23)NC(=O)[C@H](CC(=O)O)NC(=O)[C@H](CCC(N)=O)NC(=O)[C@H](Cc2cn(C)c3ccccc23)NC1=O [Compound 136] (Ac-SEFCI[Trp(1-Me)]QDWGEHRCTEGE[Aoc]K([γGlu-Gly-γGlu-C18 diacid])-NH2; disulfide 4-14),< 100 nM
